In patent publication EP2486923B1, “Histone deacetylase (HDAC) inhibiting compounds and method of making same” (Dr. Felix Jäger und Dr. Stefan Drinkuth Laborgemeinschaft …, priority 2011, dated 2012):
Where two headings read alike, the source gives them in different places.

Tests used:
Assay in all cases: Two-step fluorescence assay for determination of IC50
Format in all cases: biochemical
HDAH = molecular target: T1, HDAH (Alcaligenes sp., UniProt Q70I53)
T1 sequence (Q70I53 1-369): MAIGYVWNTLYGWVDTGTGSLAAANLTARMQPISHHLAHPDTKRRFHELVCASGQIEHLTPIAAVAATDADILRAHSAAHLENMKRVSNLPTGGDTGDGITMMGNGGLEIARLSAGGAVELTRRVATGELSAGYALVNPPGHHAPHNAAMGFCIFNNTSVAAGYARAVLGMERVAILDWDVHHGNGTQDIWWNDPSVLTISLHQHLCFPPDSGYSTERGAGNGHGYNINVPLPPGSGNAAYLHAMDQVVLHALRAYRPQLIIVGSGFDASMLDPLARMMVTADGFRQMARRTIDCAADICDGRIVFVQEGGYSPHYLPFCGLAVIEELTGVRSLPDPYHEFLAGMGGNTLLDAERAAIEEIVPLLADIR
Description: (§1) In order to evaluate the inhibitory characteristics of example compounds of the invention, IC50 values were determined for such compounds. […] A two-step assay was used for this purpose.
(§2) To obtain the IC50 value for an individual compound/HDAC pair, a two-step assay can be performed based on a fluorescence signal. In principle, an ε-acetylated lysine substrate is deacetylated by histone-deacetylases in the first step. Trypsin releases detectable 7-amino-4-methylcoumarin (ex = excitation wavelength: 390 nm, em = emission wavelength: 460 nm) by cleaving the substrate at the deacetylated lysine in a subsequent reaction^[9]. The enzyme activity is inhibited by a suitable HDACi.
(§3) The obtained data are interpreted using a four parameter fit. Based on this fit, the IC50 value can be estimated. Analysis ot the data and calculation of the IC50 values was accomplished using a four-parameter logistic model protocol as previously described by Vølund^[16]. For nonlinear fits the Levenberg-Marquardt algorithm was applied^[17],[18]. […] Table 1: IC50 values in µM for synthesized compounds of the invention with a perfluorinated linker. […] HDAH = HDAC-like amidohydrolase

HDAC7 = molecular target: T2, HDAC7 (Homo sapiens, UniProt Q8WUI4)
T2 sequence (Q8WUI4 1-952): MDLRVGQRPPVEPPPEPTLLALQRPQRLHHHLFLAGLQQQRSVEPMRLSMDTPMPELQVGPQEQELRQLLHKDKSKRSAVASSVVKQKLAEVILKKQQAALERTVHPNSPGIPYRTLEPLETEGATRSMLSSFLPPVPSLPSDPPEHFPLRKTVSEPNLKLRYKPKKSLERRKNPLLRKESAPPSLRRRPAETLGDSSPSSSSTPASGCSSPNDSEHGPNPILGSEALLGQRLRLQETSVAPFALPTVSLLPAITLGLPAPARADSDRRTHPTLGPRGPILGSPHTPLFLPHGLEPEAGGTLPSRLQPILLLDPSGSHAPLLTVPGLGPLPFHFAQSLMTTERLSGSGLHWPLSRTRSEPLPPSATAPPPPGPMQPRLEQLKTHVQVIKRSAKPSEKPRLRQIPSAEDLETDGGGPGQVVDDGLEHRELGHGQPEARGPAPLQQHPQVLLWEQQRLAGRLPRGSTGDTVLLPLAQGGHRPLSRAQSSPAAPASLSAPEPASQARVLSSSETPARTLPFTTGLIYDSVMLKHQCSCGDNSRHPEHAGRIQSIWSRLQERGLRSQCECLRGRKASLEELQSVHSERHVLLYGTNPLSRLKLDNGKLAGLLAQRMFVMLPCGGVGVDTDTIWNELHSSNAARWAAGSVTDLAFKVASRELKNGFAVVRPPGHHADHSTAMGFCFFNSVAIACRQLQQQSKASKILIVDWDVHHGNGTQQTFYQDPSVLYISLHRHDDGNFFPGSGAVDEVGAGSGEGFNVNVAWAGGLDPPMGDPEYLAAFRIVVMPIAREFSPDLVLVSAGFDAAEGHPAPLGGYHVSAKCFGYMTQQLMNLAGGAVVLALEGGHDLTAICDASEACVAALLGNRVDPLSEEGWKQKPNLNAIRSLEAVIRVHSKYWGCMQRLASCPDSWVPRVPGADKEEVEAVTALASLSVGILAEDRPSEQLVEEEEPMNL
Description: as §1, §2, §3

HDAC8 = molecular target: T3, HDAC8 (Homo sapiens, UniProt Q9BY41)
T3 sequence (Q9BY41 1-377): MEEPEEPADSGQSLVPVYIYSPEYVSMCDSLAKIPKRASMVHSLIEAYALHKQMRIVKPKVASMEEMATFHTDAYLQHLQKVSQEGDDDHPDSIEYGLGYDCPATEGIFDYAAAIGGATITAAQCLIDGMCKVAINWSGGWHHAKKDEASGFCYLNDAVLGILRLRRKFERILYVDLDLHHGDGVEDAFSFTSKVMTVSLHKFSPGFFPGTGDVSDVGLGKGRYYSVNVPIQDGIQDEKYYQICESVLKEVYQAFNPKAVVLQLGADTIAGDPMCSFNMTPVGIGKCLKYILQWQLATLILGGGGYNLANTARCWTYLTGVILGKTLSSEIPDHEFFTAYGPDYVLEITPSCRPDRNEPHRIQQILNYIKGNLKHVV
Description: as §1, §2, §3

HDAC1 = HDAC1 (Homo sapiens, UniProt Q13547)
Description: as §1, §2, §3

HDAC6 = molecular target: T4, HDAC6 (Homo sapiens, UniProt Q9UBN7)
T4 sequence (Q9UBN7 1-1215): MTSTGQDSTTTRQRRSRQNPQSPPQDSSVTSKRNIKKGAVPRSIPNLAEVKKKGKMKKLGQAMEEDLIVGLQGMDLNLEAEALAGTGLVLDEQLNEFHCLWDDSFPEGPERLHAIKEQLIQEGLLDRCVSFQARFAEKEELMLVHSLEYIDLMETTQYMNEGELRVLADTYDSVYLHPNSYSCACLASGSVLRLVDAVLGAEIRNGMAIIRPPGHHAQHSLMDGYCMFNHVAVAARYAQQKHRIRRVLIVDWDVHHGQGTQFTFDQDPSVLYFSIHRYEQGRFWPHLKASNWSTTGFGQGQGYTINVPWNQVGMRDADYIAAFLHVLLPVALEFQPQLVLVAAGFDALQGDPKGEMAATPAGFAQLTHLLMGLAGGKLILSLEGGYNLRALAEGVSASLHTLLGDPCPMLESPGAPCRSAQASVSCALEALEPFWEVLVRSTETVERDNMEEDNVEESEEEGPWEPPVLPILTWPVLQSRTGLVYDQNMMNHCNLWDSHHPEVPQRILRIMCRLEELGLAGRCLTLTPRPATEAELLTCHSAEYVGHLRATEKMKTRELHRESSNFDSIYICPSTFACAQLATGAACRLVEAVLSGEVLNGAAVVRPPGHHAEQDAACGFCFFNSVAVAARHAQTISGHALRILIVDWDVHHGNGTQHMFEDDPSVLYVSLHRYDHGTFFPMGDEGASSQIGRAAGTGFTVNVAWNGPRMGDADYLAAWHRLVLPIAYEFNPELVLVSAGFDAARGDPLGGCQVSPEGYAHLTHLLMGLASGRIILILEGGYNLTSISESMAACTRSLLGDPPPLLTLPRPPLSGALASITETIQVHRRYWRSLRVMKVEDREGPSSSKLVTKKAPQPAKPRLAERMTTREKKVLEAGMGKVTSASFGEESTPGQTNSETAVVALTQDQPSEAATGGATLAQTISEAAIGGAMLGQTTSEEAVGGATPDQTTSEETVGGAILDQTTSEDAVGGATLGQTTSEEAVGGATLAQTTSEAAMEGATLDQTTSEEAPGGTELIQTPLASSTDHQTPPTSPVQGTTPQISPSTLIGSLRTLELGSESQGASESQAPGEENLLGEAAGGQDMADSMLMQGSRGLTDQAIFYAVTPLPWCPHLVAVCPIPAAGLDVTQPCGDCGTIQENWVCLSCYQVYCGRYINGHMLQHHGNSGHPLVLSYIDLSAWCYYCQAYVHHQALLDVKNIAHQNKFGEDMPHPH
Description: as §1, §2, §3

[1] = HDAC-like amidohydrolase, ε-acetylated lysine substrate, trypsin release of 7-amino-4-methylcoumarin, four parameter fit, read-out: IC50 values HDAH
[2] = ε-acetylated lysine substrate, trypsin release of 7-amino-4-methylcoumarin, four parameter fit, read-out: IC50 values HDAC8
[3] = ε-acetylated lysine substrate, trypsin release of 7-amino-4-methylcoumarin, four parameter fit, read-out: IC50 values HDAC6

HDAC1, sequence (Q13547 whole entry): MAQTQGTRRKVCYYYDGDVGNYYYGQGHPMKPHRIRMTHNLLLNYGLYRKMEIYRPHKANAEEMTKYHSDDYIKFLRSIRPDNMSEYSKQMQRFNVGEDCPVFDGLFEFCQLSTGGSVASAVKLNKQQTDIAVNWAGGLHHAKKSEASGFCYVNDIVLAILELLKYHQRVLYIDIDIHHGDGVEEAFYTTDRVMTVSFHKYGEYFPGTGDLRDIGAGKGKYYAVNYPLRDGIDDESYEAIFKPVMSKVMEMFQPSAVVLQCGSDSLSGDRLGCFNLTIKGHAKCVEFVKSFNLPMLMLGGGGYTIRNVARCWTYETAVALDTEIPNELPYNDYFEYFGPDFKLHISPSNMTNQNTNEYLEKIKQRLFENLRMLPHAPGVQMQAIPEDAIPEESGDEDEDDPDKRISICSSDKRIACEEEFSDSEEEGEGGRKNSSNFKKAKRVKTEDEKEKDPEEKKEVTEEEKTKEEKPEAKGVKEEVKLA

Cc1ccc(NC(=O)C(F)(F)C(F)(F)C(F)(F)C(F)(F)C(F)(F)C(F)(F)C(=O)NO)cc1C [LU228, 2,2,3,3,4,4,5,5,6,6,7,7-Dodecafluorooctanedioic acid (3,4-dimethylphenyl)-amide hydroxyamide]
IC50 (HDAH; [1]): 0.66 µM
IC50 (HDAC7): 5.51 µM
IC50 (HDAC8; [2]): 22.8 µM
IC50 (HDAC1): 10 µM
IC50 (HDAC6; [3]): 7.8 µM

O=C(NO)C1CCCCC1C(=O)Nc1ccccc1 (stereo not drawn) [RK216, reference compound]
IC50 (HDAH): 34.8 µM
IC50 (HDAC7): > 100 µM
IC50 (HDAC8): > 100 µM
IC50 (HDAC1): > 100 µM
IC50 (HDAC6): 44 µM

O=C(NO)C(F)(F)C(F)(F)C(F)(F)C(F)(F)C(F)(F)C(F)(F)C(=O)Nc1ccc(-c2cn(-c3ccccc3)nn2)cc1 [LU 233, 2,2,3,3,4,4,5,5,6,6,7,7-Dodecafluorooctanedioic acid hydroxyamide {4-[1-phenyl-1H-(1,2,3)triazol-4-yl]phenyl}amide]
IC50 (HDAH; [1]): 16.9 µM
IC50 (HDAC7; ε-acetylated lysine substrate, trypsin release of 7-amino-4-methylcoumarin, four parameter fit, read-out: IC50 values HDAC7): 42.2 µM
IC50 (HDAC8; [2]): > 100 µM
IC50 (HDAC1; ε-acetylated lysine substrate, trypsin release of 7-amino-4-methylcoumarin, four parameter fit, read-out: IC50 values HDAC1): > 100 µM
IC50 (HDAC6; [3]): 9.81 µM
